Read-outs that look alike come from different tables or passages of the source.
Assays:
delta opioid receptor = target: T1, delta opioid receptor (Rattus norvegicus, UniProt P33533); experiment: Rat brain delta opioid receptor binding assay
T1 construct: from tissue; host or cells: forebrain of male Wistar rats
Procedure: Procedure: Male, Wistar rats (150-250 g, VAF, Charles River, Kingston, N.Y.) were killed by CO2, and their brains were removed and placed immediately in ice cold Tris HCl buffer (50 mM, pH 7.4). The forebrains were separated from the remainder of the brain by a coronal transection, beginning dorsally at the colliculi and passing ventrally through the midbrain-pontine junction. After dissection, the forebrains were homogenized in Tris buffer in a Teflon®-glass homogenizer. The homogenate was diluted to a concentration of 1 g of forebrain tissue per 80 mL Tris and centrifuged at 39,000×g for 10 min. The pellet was resuspended in the same volume of Tris buffer containing 5 mM MgCl2 with several brief pulses from a Polytron homogenizer. This particulate preparation was used for the delta opioid binding assays. Following incubation with the delta selective peptide ligand ˜4 nM [^3H]DPDPE or 0.25 nM [^3H]naltrindole at 25° C. for 2.5 h in a 96-well plate with total volume of 1 mL, the plate contents were filtered through Wallac filtermat B sheets on a Tomtec 96-well harvester. The filters were rinsed three times with 2 mL of 10 mM HEPES (pH 7.4), and dried in a 650 W microwave oven for 1.75 min twice. To each sample area 2×50 μL of Betaplate Scint scintillation fluid (LKB) was added and the radioactivity was quantified on a LKB (Wallac) 1205 BetaPlate liquid scintillation counter.
Analysis: The data from the scintillation counter were used to calculate either the % inhibition compared to control binding (when only a single concentration of test compound was evaluated) or a Ki value (when a range of concentrations was tested). Percent inhibition was calculated as: [(total dpm−test compound dpm)/(total dpm−nonspecific dpm)]*100. Kd and Ki values were calculated using GraphPad PRISM data analysis program.

δ-opioid receptor = target: T2, δ-opioid receptor (Mus musculus, UniProt P32300); experiment: [35S]GTPγS binding assay in NG108-15 cell membranes (delta opioid functional assay); type: biochemical; conditions: for GTPγS δ-RelEfficacy @200 nM: 200 nM compound, relative to calculated max of SNC80 dose response
T2 construct: NG108-15 cell membranes were purchased from Applied Cell Sciences (Rockville, Md.); host or cells: NG108-15 cell membranes (purchased)
Procedure: Methods: NG108-15 cell membranes were purchased from Applied Cell Sciences (Rockville, Md.). 5 mg/mL of membrane protein was suspended in 10 mM TRIS-HCl pH 7.2, 2 mM EDTA, 10% sucrose. Membranes were maintained at 4-8° C. A 1 mL volume of membranes was added into 10 mL cold binding assay buffer. The assay buffer contained 50 mM Tris, pH 7.6, 5 mM MgCl2, 100 mM NaCl, 1 mM DTT and 1 mM EGTA. The membrane suspension was homogenized twice with a Polytron, and centrifuged at 3000 rpm for 10 min. The supernatant was then centrifuged at 18,000 rpm for 20 min. Ten mL of assay buffer was added into the pellet containing tube. The pellet and buffer were mixed with a Polytron.
Incubation procedure: The pellet membranes (75 μg/mL) were preincubated with SPA beads (10 mg/mL) at 25° C. for 45 min in the assay buffer. The SPA beads (5 mg/mL) coupled with membranes (37.5 μg/mL) were then incubated with 0.1 nM [^35S]GTPγS in the same Tris buffer containing 100 μM GDP in total volume of 200 μL. 200 nM of receptor agonists was used to stimulate [^35S]-GTPγS binding. The basal binding was tested in the absence of agonists and non-specific binding was tested in the presence of 10 μM unlabeled GTPγS.
Data % of Basal=(stimulated−non specific)*100/(basal−non specific). Relative Efficacy of a compound at 200 nM=(% of Basal of test compound at 200 nM)/(Calculated Max of SNC80 dose response. Curve in prism).

[1] = rat forebrain membranes, ~4 nM [3H]DPDPE, read-out: δ-binding (DPDPE ligand) Ki
[2] = read-out: GTPγS δ-opioid receptor EC50
[3] = [3H]naltrindole ligand, read-out: δ-binding (Naltrindole ligand) Ki

T2 sequence (P32300 whole entry): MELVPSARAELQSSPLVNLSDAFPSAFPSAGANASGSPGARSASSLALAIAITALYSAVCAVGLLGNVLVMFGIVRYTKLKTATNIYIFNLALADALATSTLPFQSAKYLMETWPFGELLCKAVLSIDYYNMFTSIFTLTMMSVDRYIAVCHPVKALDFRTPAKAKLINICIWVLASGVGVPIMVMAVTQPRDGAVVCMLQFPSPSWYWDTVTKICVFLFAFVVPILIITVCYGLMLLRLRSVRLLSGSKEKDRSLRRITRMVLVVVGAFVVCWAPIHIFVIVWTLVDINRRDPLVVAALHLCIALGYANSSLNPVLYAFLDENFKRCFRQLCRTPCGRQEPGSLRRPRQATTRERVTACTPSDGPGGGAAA
T1 sequence (P33533 whole entry): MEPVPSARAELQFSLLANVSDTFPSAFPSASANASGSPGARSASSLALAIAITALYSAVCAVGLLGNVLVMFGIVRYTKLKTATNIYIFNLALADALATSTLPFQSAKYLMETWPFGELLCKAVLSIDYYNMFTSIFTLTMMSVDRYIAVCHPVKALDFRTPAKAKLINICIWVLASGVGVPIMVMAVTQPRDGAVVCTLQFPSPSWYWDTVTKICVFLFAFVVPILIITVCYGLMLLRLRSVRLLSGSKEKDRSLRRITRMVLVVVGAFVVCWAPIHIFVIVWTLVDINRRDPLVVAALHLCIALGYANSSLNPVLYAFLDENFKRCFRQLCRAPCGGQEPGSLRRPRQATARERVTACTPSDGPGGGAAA

Compound	Ki (delta opioid receptor; [1]) [nM]	GTPγS δ-opioid receptor Rel Efficacy (δ-opioid receptor)	EC50 (δ-opioid receptor; [2]) [nM]	Ki (delta opioid receptor; [3]) [nM]	GTPγS δ-RelEfficacy @200 nM (δ-opioid receptor)	Ki (delta opioid receptor) [nM]	EC50 (δ-opioid receptor) [nM]
COc1ccc(Oc2nc(-c3cncnc3)cnc2NC[C@@H]2CCCN2)cc1 [Cpd 5]	2.7	1.0984	349	–	–	–	–
CCc1ccc(Oc2nc(-c3cncnc3)cnc2NC[C@@H]2CCCN2)cc1 [Cpd 6]	32.3	1.1553	460	–	–	–	–
c1ncc(-c2cnc(NC[C@@H]3CCCN3)c(Oc3ccc4c(c3)OCO4)n2)cn1 [Cpd 7]	491	–	–	–	–	–	–
COc1ccc(Oc2nc(-c3cncnc3)cnc2NC[C@@H]2CCCN2)c(F)c1 [Cpd 9]	1.2	1.1022	281	–	–	–	–
Clc1ccc(Oc2nc(-c3cncnc3)cnc2NC[C@@H]2CCCN2)cc1 [Cpd 10]	–	–	–	1.1	0.2150	–	–
Clc1cccc(Oc2nc(-c3cncnc3)cnc2NC[C@@H]2CCCN2)c1 [Cpd 11]	–	–	–	1.8	0.2102	–	–
CC(=O)Nc1cccc(Oc2nc(-c3cncnc3)cnc2NC[C@@H]2CCCN2)c1 [Cpd 13]	–	–	–	4	0.0800	–	–
c1cn(-c2ccc(Oc3nc(-c4cncnc4)cnc3NC[C@@H]3CCCN3)cc2)cn1 [Cpd 14]	–	–	–	411	–	–	–
COc1ccc(Cc2nc(-c3cccnc3)cnc2NC[C@@H]2CCCN2)cc1 [Cpd 16]	–	0.3985	7320	15	–	–	–
COc1ccc(Cc2nc(-c3cncnc3)cnc2NC[C@@H]2CCCN2)cc1 [Cpd 17, [3-(4-Methoxy-benzyl)-5-pyrimidin-5-yl-pyrazin-2-yl]-pyrrolidin-2-(S)-ylmethyl-amine]	–	–	–	19.9	0.1065	–	–
N#Cc1ccc(Oc2nc(-c3cncnc3)cnc2NC[C@@H]2CCCN2)cc1 [Cpd 18]	–	–	–	76.4	0.1065	–	–
COc1ccc(Oc2nc(-c3cncnc3)cnc2NCC2(N)CCCC2)cc1 [Cpd 22]	–	–	–	2.9	0.2384	–	–
COc1ccc(Cc2nc(-c3cncc(C#N)c3)cnc2NC[C@@H]2CCCN2)cc1 [Cpd 23]	–	–	–	2.4	0.1174	–	–
N#CCc1ccc(Oc2nc(-c3cncc(C#N)c3)cnc2NC[C@@H]2CCCN2)cc1 [Cpd 27]	–	1.0035	34.2	6.4	0.9179	–	–
Cc1ccc(Oc2nc(-c3cncc(C#N)c3)cnc2NC[C@@H]2CCCN2)cn1 [Cpd 28]	–	–	–	13.2	0.1492	–	–
c1ncc(-c2cnc(NC[C@@H]3CCCN3)c(Oc3ccc4c(c3)CCO4)n2)cn1 [Cpd 33]	–	–	–	4.3	–	–	–
COc1ccc(Oc2nc(-c3cncc(C#N)c3)cnc2N[C@H]2CC[C@H](N)CC2)cc1 [Cpd 34]	–	–	–	–	–	0.7	–
COc1ccc(Oc2nc(-c3cncc(C#N)c3)cnc2N[C@H]2CC[C@@H](N)CC2)cc1 [Cpd 35]	–	1.2053	–	–	0.4157	0.4	95.2
N#Cc1cncc(-c2cnc(NC[C@@H]3CCCN3)c(Oc3ccc(OC(F)(F)F)cc3)n2)c1 [Cpd 36]	–	0.9719	29.7	1.4	0.5598	–	–
N#Cc1cncc(-c2cnc(NC[C@@H]3CCCN3)c(Oc3ccc4[nH]ccc4c3)n2)c1 [Cpd 40]	–	1.1190	39.3	–	0.6606	–	–
N#Cc1cncc(-c2cnc(NC[C@@H]3CCCN3)c(Oc3ccccc3Cl)n2)c1 [Cpd 41]	–	1.2922	298	–	0.3049	–	–
N#Cc1cncc(-c2cnc(NC[C@@H]3CCCN3)c(Oc3cccc(Cl)c3)n2)c1 [Cpd 42]	–	1.1894	84.4	–	0.7111	–	–

Continued, in another order:

Ki (delta opioid receptor; [1]) [nM]	GTPγS δ-opioid receptor Rel Efficacy (δ-opioid receptor)	EC50 (δ-opioid receptor; [2]) [nM]	Ki (delta opioid receptor; [3]) [nM]	GTPγS δ-RelEfficacy @200 nM (δ-opioid receptor)	Compound	Ki (delta opioid receptor) [nM]	EC50 (δ-opioid receptor) [nM]
–	–	–	0.7	0.2356	Clc1ccccc1Oc1nc(-c2cncnc2)cnc1NC[C@@H]1CCCN1 [Cpd 12, [3-(2-Chloro-phenoxy)-5-pyrimidin-5-yl-pyrazin-2-yl]-pyrrolidin-2-(S)-ylmethyl-amine]	–	–
–	–	–	0.4	–	Oc1cccc(Oc2nc(-c3cncnc3)cnc2NC[C@@H]2CCCN2)c1 [Cpd 15, 3-{6-Pyrimidin-5-yl-3-[(pyrrolidin-2-(S)-ylmethyl)-amino]-pyrazin-2-yloxy}-phenol]	–	–
–	–	–	0.3	–	COc1ccc(Oc2nc(-c3cncc(C#N)c3)cnc2NC[C@H](C)N)cc1 [Cpd 19]	–	–
–	1.0287	50.5	0.6	0.6890	COc1ccc(Oc2nc(-c3cncnc3)cnc2NC[C@H](C)N)cc1 [Cpd 20]	–	–
–	–	–	0.6	0.2481	COc1ccc(Oc2nc(-c3cncc(C#N)c3)cnc2NCC2(N)CCCC2)cc1 [Cpd 21]	–	–
–	–	–	0.2	0.1669	COc1ccc(Oc2nc(-c3cncc(C#N)c3)cnc2NC[C@@H]2CCCN2)cc1 [Cpd 24]	–	–
–	1.0387	31.3	0.2	0.9130	COc1ccc(Oc2nc(-c3cncc(C#N)c3)cnc2NC[C@@H]2CCCN2)cc1F [Cpd 25]	–	–
–	1.0534	27.1	0.2	1.0180	COc1ccc(Oc2nc(-c3cncc(C#N)c3)cnc2NC[C@@H]2CCCN2)c(F)c1 [Cpd 26]	–	–
–	–	–	0.3	0.0000	N#Cc1cncc(-c2cnc(NC[C@@H]3CCCN3)c(Oc3ccc(OC(F)F)cc3)n2)c1 [Cpd 29]	–	–
–	1.1345	111	0.1	0.5999	COc1ccc(Oc2nc(-c3cncc(C#N)c3)cnc2N2CCNCC2)cc1 [Cpd 30, 5-[3′-(4-Methoxy-phenoxy)-3,4,5,6-tetrahydro-2H-[1,2′]bipyrazinyl-5′-yl]-nicotinonitrile]	–	–
–	1.0012	8.1	0.3	0.7579	COc1ccc(Oc2nc(-c3cccnc3)cnc2N2CCNCC2)cc1 [Cpd 31]	–	–
–	–	–	0.5	0.3353	CCc1ccc(Oc2nc(-c3cncc(C#N)c3)cnc2NC[C@@H]2CCCN2)cc1 [Cpd 37]	–	–
–	1.1104	66.6	0.086	0.6472	N#Cc1cncc(-c2cnc(NC[C@@H]3CCCN3)c(Oc3cccc(O)c3)n2)c1 [Cpd 38, 5-{6-(3-Hydroxy-phenoxy)-5-[(pyrrolidin-2-(S)-ylmethyl)-amino]-pyrazin-2-yl}-nicotinonitrile]	–	–
–	1.0736	4.6	0.2	1.0765	N#Cc1cncc(-c2cnc(NC[C@@H]3CCCN3)c(Oc3ccc4occc4c3)n2)c1 [Cpd 39]	–	–

From US8183371B2, “Pyrazines as delta opioid receptor modulators” (Janssen Pharmaceutica NV, priority 2009, dated 2012)
